For the assay, the system named is UACC-62. Kind of assay: Cytotoxicity against human UACC62 cells. Particulars: read-out: LC50 (the source's name). It is filed as functional.

Molecules are shown by their SMILES.

Results on 1 molecule are retold here after ChEMBL document CHEMBL1154128, “Characterization of the microbial community and polyketide biosynthetic potential in the palmerolide-producing tunicate Synoicum adareanum” (2008).

In the case of `CC(C)=CC(=O)N/C=C/C(C)=C/[C@@H](C)[C@H]1C/C(C)=C/C=C/CC[C@H](OC(N)=O)[C@@H](O)/C=C/[C@@H](O)CCC/C=C/C(=O)O1` [PALMEROLIDE A], the CC50 was found to be 0.018 µM.
